Experimental findings from US9624223B2, “Morphinan derivative” (THE KITASATO INSTITUTE, priority 2013, dated 2017) are described below.

SMILES strings stand for the structures. Where only a bound is given, the exact number is not on record here.

Data set [1] has as its target T1, human opioid receptor κ (Homo sapiens, UniProt P41145).
T1 construct: host or cells: CHO cells
Briefly: Opioid receptor function test (Lance Ultra cAMP Kit), κ receptor. The data set is classed as cell-based. The protocol: (§1) Functional activities of the compounds of the present invention on the μ, δ, and κ opioid receptors were examined.
(§2) The test was performed by using Lance Ultra cAMP Kit (Perkin-Elmer) according the prescribed method. In the evaluation of the agonistic activity, each human opioid receptor (δ, μ, and κ, accession numbers and catalog numbers are mentioned below)-expressing CHO cells and 10 μM of a test compound were reacted for 30 minutes in the presence of forskolin in an assay buffer (1×HBSS, […], pH 7.4, […] (isobutylmethylxanthine), 7.5% BSA). The cAMP detection reagent included in the kit was then added, and 1 hour afterward, time decomposition fluorometry was performed by using EnVision plate reader (Perkin-Elmer). […] The Emax value was calculated as a ratio of the maximum reaction of the test compound based on the maximum reaction of each control drug, which was taken as 100%.
(§3) • (+)-4-[(αR)-α-(2S,5R)-4-Allyl-2,5-dimethyl-1-piperazinyl]-3-methoxybenzyl]-N,N-diethylbenzamide DAMGO: • [D-Ala^2,N-MePhe^4,Gly-ol]enkephalin U-69593: • (+)-(5α,7α,8β)-N-Methyl-N-[7-(1-pyrrolidinyl)-1-oxaspiro[4.5]dec-8-yl]benzeneacetamide Accession Numbers and Catalog Numbers δ: Catalog No. CT4607, accession No. NM_000911.2 μ: Catalog No. CT4605, accession No. NM_000914 κ: Catalog No. CT4606, accession No. NM_000912 (ChanTest Corporation)

The target in data set [2] is T2, human opioid receptor μ (Homo sapiens, UniProt P35372).
T2 construct: host or cells: CHO cells
T2 sequence (P35372 whole entry): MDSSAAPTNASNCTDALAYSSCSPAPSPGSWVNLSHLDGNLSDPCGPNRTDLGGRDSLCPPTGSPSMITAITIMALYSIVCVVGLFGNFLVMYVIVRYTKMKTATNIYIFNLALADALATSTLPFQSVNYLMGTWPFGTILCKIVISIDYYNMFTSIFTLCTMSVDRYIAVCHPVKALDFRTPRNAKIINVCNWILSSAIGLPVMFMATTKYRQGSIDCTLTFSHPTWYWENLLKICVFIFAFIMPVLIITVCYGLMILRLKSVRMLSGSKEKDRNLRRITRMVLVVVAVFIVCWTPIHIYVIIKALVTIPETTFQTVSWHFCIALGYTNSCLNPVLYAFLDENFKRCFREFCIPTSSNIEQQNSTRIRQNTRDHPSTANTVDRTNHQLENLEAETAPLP
Briefly: Opioid receptor function test (Lance Ultra cAMP Kit), μ receptor. The class given is cell-based. The protocol: as §1, §2, §3

Data set [3] deals with T3, human opioid receptor δ (Homo sapiens, UniProt P41143).
T3 construct: host or cells: CHO cells
T3 sequence (P41143 whole entry): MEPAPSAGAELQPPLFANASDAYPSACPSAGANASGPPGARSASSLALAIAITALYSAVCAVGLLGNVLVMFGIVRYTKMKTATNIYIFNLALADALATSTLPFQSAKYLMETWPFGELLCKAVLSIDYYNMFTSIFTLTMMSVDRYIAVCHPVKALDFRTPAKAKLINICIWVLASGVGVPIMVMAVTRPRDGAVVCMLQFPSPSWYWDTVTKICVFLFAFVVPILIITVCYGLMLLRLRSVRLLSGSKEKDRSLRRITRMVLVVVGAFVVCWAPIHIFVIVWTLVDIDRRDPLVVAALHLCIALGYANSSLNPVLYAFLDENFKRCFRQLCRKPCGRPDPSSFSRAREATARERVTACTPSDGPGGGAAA
Briefly: Opioid receptor function test (Lance Ultra cAMP Kit), δ receptor. The data set is classed as cell-based. The protocol: as §1, §2, §3

The target in data set [4] is T4, κ opioid receptor (Cavia porcellus, UniProt P41144).
T4 construct: in the assay for the κ receptor, guinea pig cerebellum membrane fraction was used; from tissue; host or cells: guinea pig cerebellum membrane fraction
T4 sequence (P41144 whole entry): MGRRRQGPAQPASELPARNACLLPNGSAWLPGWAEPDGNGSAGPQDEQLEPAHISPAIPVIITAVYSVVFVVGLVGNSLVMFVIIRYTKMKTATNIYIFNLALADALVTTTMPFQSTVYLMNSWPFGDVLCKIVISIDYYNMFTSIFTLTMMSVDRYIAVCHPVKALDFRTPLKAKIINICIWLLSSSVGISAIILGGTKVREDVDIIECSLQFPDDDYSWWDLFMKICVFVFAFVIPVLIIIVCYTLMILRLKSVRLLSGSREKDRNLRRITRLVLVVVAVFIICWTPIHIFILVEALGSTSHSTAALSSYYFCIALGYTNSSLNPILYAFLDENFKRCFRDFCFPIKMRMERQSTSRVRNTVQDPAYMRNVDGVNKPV
Briefly: Opioid receptor binding test, [3H]U69,593, guinea pig cerebellum membrane fraction. To be noted: ratio of Ki for κ to Ki for δ. The protocol: (§4) Binding affinities of the compounds of the present invention to the μ, δ, and κ opioid receptors were examined.
(§5) According to a previous report (J. Biol. Chem., 2001, 276:15409-15414), mouse cerebrum and guinea pig cerebellum membrane fractions were prepared. As radioactive ligands for the opioid receptors, [^3H]DAMGO (μ opioid receptor), [^3H]DPDPE (δ opioid receptor), and [3H]U69,593 (κ opioid receptor) were used. In the assays for the μ and δ receptors, the mouse cerebrum membrane fraction was used, and in the assay for the κ receptor, guinea pig cerebellum membrane fraction was used. For the nonspecific binding, DAMGO, DPDPE, and U69,593 were used at 1 μM for μ, δ and κ receptors, respectively. Each receptor membrane fraction, radioactive ligand, and a sample at various concentrations were reacted for a predetermined time, and after the B/F separation, amount of radioactivity remained on the filter was measured with a liquid scintillation counter, and binding inhibition ratio of the test compound (IC50 value) was calculated. Ki value was calculated by using the resulting IC50 value in accordance with the following equation. Ki=IC50/(1+L/Kd) L: Concentration of radioactive ligand used Kd: Kd value of radioactive ligand
(§6) Further, selectivity for the δ receptor among the opioid receptors was determined by calculating ratio of the Ki value for μ or κ, and the Ki value for δ (μ/δ or κ/δ).

The target of data set [5] is T5, μ opioid receptor (Mus musculus, UniProt P42866).
T5 construct: In the assays for the μ and δ receptors, the mouse cerebrum membrane fraction was used; from tissue; host or cells: mouse cerebrum membrane fraction
T5 sequence (P42866 whole entry): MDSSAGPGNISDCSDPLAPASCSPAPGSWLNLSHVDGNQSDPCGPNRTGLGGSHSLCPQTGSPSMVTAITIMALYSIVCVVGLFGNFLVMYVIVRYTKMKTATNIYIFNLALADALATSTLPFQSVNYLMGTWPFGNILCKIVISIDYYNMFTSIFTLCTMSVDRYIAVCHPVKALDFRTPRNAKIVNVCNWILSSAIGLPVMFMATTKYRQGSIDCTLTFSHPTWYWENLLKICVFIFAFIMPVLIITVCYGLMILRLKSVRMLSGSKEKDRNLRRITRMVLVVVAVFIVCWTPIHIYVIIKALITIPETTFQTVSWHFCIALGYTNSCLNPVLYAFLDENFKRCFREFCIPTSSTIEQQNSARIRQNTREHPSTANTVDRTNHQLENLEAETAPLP
Briefly: Opioid receptor binding test, [3H]DAMGO, mouse cerebrum membrane fraction. To be noted: ratio of Ki for μ to Ki for δ. The protocol:
as §4, §5, §6
(§7) • [D-Ala^2,N-MePhe^4, Gly-Ol]enkephalin DPDPE: • [D-Pen^2,D-Pen^5]enkephalin

The target of data set [6] is T6, hERG channel (Homo sapiens, UniProt Q12809).
T6 construct: expressed in transfected cells; host or cells: CHO-K1 cells
T6 sequence (Q12809 whole entry): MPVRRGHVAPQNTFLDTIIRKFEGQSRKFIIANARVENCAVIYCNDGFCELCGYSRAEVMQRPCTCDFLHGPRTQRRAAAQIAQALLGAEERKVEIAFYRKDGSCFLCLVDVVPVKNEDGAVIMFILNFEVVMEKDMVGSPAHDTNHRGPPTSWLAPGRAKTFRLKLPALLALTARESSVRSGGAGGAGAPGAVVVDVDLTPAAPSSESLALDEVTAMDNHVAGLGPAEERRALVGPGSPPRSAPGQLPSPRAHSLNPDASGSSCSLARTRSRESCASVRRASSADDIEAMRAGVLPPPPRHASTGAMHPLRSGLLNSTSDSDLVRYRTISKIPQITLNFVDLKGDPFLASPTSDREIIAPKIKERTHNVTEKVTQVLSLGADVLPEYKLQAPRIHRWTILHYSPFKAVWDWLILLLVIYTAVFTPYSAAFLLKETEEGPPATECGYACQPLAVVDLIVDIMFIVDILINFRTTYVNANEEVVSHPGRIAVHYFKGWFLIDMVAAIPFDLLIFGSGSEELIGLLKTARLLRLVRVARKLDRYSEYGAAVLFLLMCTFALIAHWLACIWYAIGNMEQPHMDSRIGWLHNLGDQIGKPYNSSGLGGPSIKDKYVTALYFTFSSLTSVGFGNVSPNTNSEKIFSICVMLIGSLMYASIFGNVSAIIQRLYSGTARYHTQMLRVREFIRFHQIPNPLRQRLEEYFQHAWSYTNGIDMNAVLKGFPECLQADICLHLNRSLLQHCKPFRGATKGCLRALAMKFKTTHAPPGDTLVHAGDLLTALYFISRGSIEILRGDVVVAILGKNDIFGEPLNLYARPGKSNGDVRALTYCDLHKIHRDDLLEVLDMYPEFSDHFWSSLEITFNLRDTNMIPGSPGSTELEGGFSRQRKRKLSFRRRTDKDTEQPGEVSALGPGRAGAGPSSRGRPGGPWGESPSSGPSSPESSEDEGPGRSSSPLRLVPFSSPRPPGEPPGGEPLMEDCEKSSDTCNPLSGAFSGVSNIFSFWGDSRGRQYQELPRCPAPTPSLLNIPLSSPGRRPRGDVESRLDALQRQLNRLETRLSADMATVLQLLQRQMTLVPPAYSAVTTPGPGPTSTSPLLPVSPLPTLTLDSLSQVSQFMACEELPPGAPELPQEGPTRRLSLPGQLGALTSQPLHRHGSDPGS
Briefly: hERG potassium channel inhibition test (Qpatch16 patch clamp, CHO-K1 cells). To be noted: 10 μM; tail current inhibition, hERG-expressing CHO-K1 cells. The class given is cell-based. On the procedure:
The test was performed with Qpatch16 (Sophion Biosciences Inc.) full automatic patch clamp system using hERG channel-stably expressing CHO-K1 cells. The hERG channel inhibitory action of each test compound was obtained on the basis of inhibitory action against a tail current induced by a test pulse at […] for 1 second applied after retention at +20 mV for 2 seconds. The test compound was dissolved in an extracellular fluid (137 mM NaCl, 4 mM KCl, 1.8 mM CaCl2, 1 mM MgCl2, 10 mM D(+)-glucose, 10 mM HEPES, pH 7.4), and the solution was […] at room temperature for 5 minutes. The inhibition ratio was obtained from the ratio of the tail current value observed after the compound was applied based on the tail current value observed before the compound was applied, which was taken as 100%. Cells were used for the test, where the cells show a peak tail current value not smaller than 100 pA, tail current run-down smaller than 30% of the initial current value, leak current smaller than 50% of the peak value of the tail current, and series resistance value lower than 20 MΩ.

Data set [7] addresses T7, δ opioid receptor (Mus musculus, UniProt P32300).
T7 construct: In the assays for the μ and δ receptors, the mouse cerebrum membrane fraction was used; from tissue; host or cells: mouse cerebrum membrane fraction
Briefly: Opioid receptor binding test, [3H]DPDPE, mouse cerebrum membrane fraction. The settings on record: read-out: Binding affinity (Ki, nM) δ. On the procedure:
as §4, §5, §6, §7

T1 sequence (P41145 whole entry): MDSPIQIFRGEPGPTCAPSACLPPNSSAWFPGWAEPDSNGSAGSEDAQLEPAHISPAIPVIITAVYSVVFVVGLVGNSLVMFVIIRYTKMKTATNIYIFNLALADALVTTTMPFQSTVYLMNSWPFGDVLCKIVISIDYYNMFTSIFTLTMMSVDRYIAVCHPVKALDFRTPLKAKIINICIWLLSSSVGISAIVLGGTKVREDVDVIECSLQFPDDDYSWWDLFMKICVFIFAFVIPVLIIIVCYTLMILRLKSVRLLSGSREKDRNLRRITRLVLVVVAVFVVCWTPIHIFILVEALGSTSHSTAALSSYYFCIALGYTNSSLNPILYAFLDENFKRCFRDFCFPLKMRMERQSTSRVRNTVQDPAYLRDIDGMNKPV
T7 sequence (P32300 whole entry): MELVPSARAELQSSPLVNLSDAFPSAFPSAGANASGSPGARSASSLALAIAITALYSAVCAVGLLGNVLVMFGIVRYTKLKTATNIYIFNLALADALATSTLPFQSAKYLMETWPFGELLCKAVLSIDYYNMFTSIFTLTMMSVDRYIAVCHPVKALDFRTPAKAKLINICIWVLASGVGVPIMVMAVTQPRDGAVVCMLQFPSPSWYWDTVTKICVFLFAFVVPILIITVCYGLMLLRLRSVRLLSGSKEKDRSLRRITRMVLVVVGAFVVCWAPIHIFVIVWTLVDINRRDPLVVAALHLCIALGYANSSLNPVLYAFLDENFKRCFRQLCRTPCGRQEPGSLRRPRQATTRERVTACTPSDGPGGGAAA

Usually EC50 stands for the concentration giving half of the maximal effect. The low end stands for an effect from little substance, the high end for a need for much substance. The Emax is the maximal effect, on the per cent scale that the assay sets. What is called Ki is the equilibrium dissociation constant of an inhibitor or competing ligand from its target. As to `NCCN1CC[C@@]23c4cc(O)ccc4C[C@@H]1[C@]21CC[C@@H]2[C@H]3[C@@H](CN2C(=O)c2ccccc2)C1` [Compound 13, [(1S,3aR,5aS,6R,11bR,11cS)-14-(2-aminoethyl)-10-hydroxy-1,2,3a,4,5,6,7,11c-octahydro-3H-6,11b-(epiminoethano)-1,5a-methanonaphtho[1,2-e]indol-3-yl](phenyl)methanone], the EC50 is above 100 nM in data set [1] (agonistic activity, human κ receptor-expressing CHO cells, cAMP, forskolin); above 100 nM in data set [2] (agonistic activity, human μ receptor-expressing CHO cells, cAMP, forskolin); below 10 nM in data set [3] (agonistic activity, human δ receptor-expressing CHO cells, cAMP, forskolin). The Emax came to 12% in data set [1] (maximum reaction relative to U-69593 taken as 100%), 39% in data set [2] (maximum reaction relative to DAMGO taken as 100%) and 101% in data set [3] (maximum reaction relative to SNC 80 taken as 100%). For the same compound, the “δ-receptor selectivity (Ki value ratio) κ/δ” value in data set [4] is above 10. Further, in data set [5], the “δ-receptor selectivity (Ki value ratio) μ/δ” value is above 10. Further, the “HERG channel inhibitory action” value in data set [6] is reported as below 50%. For the same compound, in data set [7], the Ki was below 10 nM.
